Drawing on US10844062B2, “Pyridine derivative inhibiting RAF kinase and vascular endothelial growth factor receptor, method for preparing same, pharmaceutical composition containing same, and use thereof” (SAMJIN PHARMACEUTICAL CO., LTD., priority 2016, dated 2020), this text covers IC50 for 31 molecules.

The test system of the test is LS513 KRAS G12V (colon). The test can be described thus: MTT assay. The test is classed as cell-based. The settings on record: Homo sapiens, LS-513, 72 h, Table 4; 3 days incubation; read-out: MTT assay IC50 KRAS mutant (Colon) LS513 KRAS G12V. As to the method: MTT assay is frequently used for the purpose of primary screening for the sensitivity of anticancer agents and to examine cytotoxicity. When cancer cells are treated with varying concentrations of any anticancer agent for a predetermined time to induce death of the cells and are then treated with MTT, and when the formation of formazan is measured, the concentration of the anticancer agent, at which about 50% of the cells survive, can be determined. This concentration value is called IC50. IC50 values differ between drugs, and thus can be characteristic of the drugs. Using this method, the effects of anticancer agents against cell proliferation can be quantitatively compared. Thus, in order to measure the cytotoxicity of samples, MTT assay was performed using CellTiter 96 Non-radioactive Cell Proliferation Assay Kit (Promega).
Cells in a cell suspension were counted with a hematocytometer, and then 200 μL of the cell suspension was added to each well of a 96 well plate at a desired concentration (cell amount determined depending on a cell line). After cell seeding, the cells were incubated in a CO2 incubator at 37° C. overnight. After one day of cell stabilization, the cells were treated with desired concentrations of the compounds. The cells were incubated in a CO2 incubator at 37° C. for 3 days, and then the sample was removed, and 200 μL of MTT solution was added to each well. After 2 hours of incubation, the MTT dilution was carefully shaken, and 200 μL of DMSO was added to each well, followed by shaking with a plate shaker for 60 minutes.
For orientation: Tetrazolium assays rely on reduction of a dye to a coloured formazan, in cell work by metabolically active cells.

For the molecule `O=C(Nc1ccc(F)c(Nc2ncccc2-c2ncnc3[nH]cnc23)c1F)N1CCN(c2ccc(F)cc2)C1=O` [Example 81, N-(3-(3-(9H-purin-6-yl)pyridin-2-ylamino)-2,4-difluorophenyl)-3-(4-fluorophenyl)-2-oxoimidazolidine-1-carboxamide], the IC50 (commonly the midpoint of a concentration-inhibition curve) is 388 nM. As for `N#Cc1cccc(C(=O)Nc2ccc(F)c(Nc3ncccc3-c3ncnc4[nH]cnc34)c2F)c1` [Example 37, N-(3-(3-(9H-Purin-6-Yl)Pyridin-2-Ylamino)-2,4-Difluorophenyl)-3-Cyanobenzamide], the figure is over 10000 nM; as for `O=C(Nc1ccc(F)c(Nc2ncccc2-c2ncnc3[nH]cnc23)c1)c1cccc(C(F)(F)F)c1` [Example 50, N-(3-(3-(9H-Purin-6-Yl)Pyridin-2-Ylamino)-4-Fluorophenyl)-3-(Trifluoromethyl)Benzamide], 221 nM. As for `O=C(Nc1cc(Nc2ncccc2-c2ncnc3[nH]cnc23)ccc1F)c1ccc(C(F)(F)F)c(F)c1` [Example 133, N-5-[(3-(9H-purin-6-yl)pyridin-2-yl)amino]-2-fluorophenyl-3-fluoro-4-(trifluoromethyl)benzamide], the figure is 5600 nM; as for `O=C(Nc1cc(Nc2ncccc2-c2ncnc3[nH]cnc23)ccc1F)c1cccc(Cl)c1` [Example 146, N-5-[(3-(9H-purin-6-yl)pyridin-2-yl)amino]-2-fluorophenyl-3-chlorobenzamide], 1700 nM.

`Cc1ccc(C(=O)Nc2cc(Nc3ncccc3-c3ncnc4[nH]cnc34)ccc2F)cc1C(F)(F)F` [Example 138, N-5-[(3-(9H-purin-6-yl)pyridin-2-yl)amino]-2-fluorophenyl-4-methyl-3-(trifluoromethyl)benzamide]: the IC50 came to 403 nM. Regarding `CC(C)(C#N)c1cc(C(=O)Nc2ccc(F)c(Nc3ncccc3-c3ncnc4[nH]cnc34)c2F)ccc1Cl` [Example 41, N-(3-(3-(9H-Purin-6-Yl)Pyridin-2-Ylamino)-2,4-Difluorophenyl)-4-Chloro-3-(2-Cyanopropan-2-Yl)Benzamide], the IC50 was found to be 475 nM. With `Cc1ccc(NC(=O)c2cccc(C(C)(C)C#N)c2)cc1Nc1ncccc1-c1ncnc2[nH]cnc12` [Example 153, N-3-[(3-(9H-purin-6-yl)pyridin-2-yl)amino]-4-methylphenyl-3-(2-cyanopropan-2-yl)benzamide], the IC50 was determined as 447 nM.

On to `CC(C)(C#N)c1cc(C(=O)Nc2cc(Nc3ncccc3-c3ncnc4[nH]cnc34)ccc2F)ccc1Cl` [Example 117, N-5-[(3-(9H-purin-6-yl)pyridin-2-yl)amino]-2-fluorophenyl-4-chloro-3-(2-cyanopropan-2-yl)benzamide], for which the IC50 is 868 nM. As for `N#CCc1ccc(C(=O)Nc2ccc(Nc3ncccc3-c3ncnc4[nH]cnc34)c(F)c2)cc1` [Example 78, N-4-[(3-(9H-Purin-6-Yl)Pyridin-2-Yl)Amino]-3-Fluorophenyl-4-(Cyanomethyl)Benzamide], the figure is 137 nM.

For the molecule `CC1CCN(c2cc(C(=O)Nc3ccc(F)c(Nc4ncccc4-c4ncnc5[nH]cnc45)c3F)cc(C(F)(F)F)c2)CC1` [Example 13, N-(3-(3-(9H-purin-6-yl)pyridin-2-ylamino)-2,4-difluorophenyl)-3-(4-methylpiperidin-1-yl)-5-(trifluoromethyl)benzamide], the IC50 was 1150 nM. As for `CSc1cccc(C(=O)Nc2cc(Nc3ncccc3-c3ncnc4[nH]cnc34)ccc2F)c1` [Example 125, N-5-[(3-(9H-purin-6-yl)pyridin-2-yl)amino]-2-fluorophenyl-3-(methylthio)benzamide], the figure is 767 nM; as for `Cc1cc(C(=O)Nc2cc(Nc3ncccc3-c3ncnc4[nH]cnc34)ccc2F)ccc1F` [Example 137, N-5-[(3-(9H-purin-6-yl)pyridin-2-yl)amino]-2-fluorophenyl-4-fluoro-3-methylbenzamide], 1060 nM; as for `COc1cc(C(=O)Nc2cc(Nc3ncccc3-c3ncnc4[nH]cnc34)ccc2F)c(Br)c(C(C)(C)C#N)c1` [Example 156, N-5-[(3-(9H-purin-6-yl)pyridin-2-yl)amino]-2-fluorophenyl-2-bromo-3-(2-cyanopropan-2-yl)-5-methoxybenzamide], 517 nM. For `O=C(Nc1ccc(F)c(Nc2ncccc2-c2ncnc3[nH]cnc23)c1F)c1ccccc1C(F)(F)F` [Example 26, N-(3-(3-(9H-purin-6-yl)pyridin-2-ylamino)-2,4-difluorophenyl)-2-(trifluoromethyl)benzamide], the IC50 was over 10000 nM. Take `O=C(Nc1cc(Nc2ncccc2-c2ncnc3[nH]cnc23)ccc1F)c1ccc(F)c(OC(F)(F)F)c1` [Example 143, N-5-[(3-(9H-purin-6-yl)pyridin-2-yl)amino]-2-fluorophenyl-4-fluoro-3-(trifluoromethoxy)benzamide]: the IC50 is 559 nM. With `CC(C)(C#N)c1cc(C(=O)Nc2ccc(F)c(Nc3ncccc3-c3ncnc4[nH]cnc34)c2F)cc(F)c1F` [Example 44, N-(3-(3-(9H-Purin-6-Yl)Pyridin-2-Ylamino)-2,4-Difluorophenyl)-3-(2-Cyanopropan-2-Yl)-4,5-Difluorobenzamide], the 50% inhibitory concentration (IC50) is 1320 nM. On to `COc1cc(OC(F)(F)F)cc(C(=O)Nc2cc(Nc3ncccc3-c3ncnc4[nH]cnc34)ccc2F)c1` [Example 140, N-5-[(3-(9H-purin-6-yl)pyridin-2-yl)amino]-2-fluorophenyl-3-methoxy-5-(trifluoromethoxy)benzamide], for which the half-inhibitory concentration (IC50) turned out to be 294 nM. Turning to `CC(C)(C#N)c1cccc(C(=O)Nc2ccc(F)c(Nc3ncccc3-c3ncnc4[nH]ccc34)c2F)c1` [Example 85, N-(3-(3-(7H-Pyrrolo[2,3-d]Pyrimidin-4-Yl)Pyridin-2-Ylamino)-2,4-Difluorophenyl)-3-(2-Cyanopropan-2-Yl)Benzamide], the IC50 is 676 nM. As for `O=C(Nc1cccc(C(F)(F)F)c1)Nc1ccc(Nc2ncccc2-c2ncnc3[nH]cnc23)c(F)c1` [Example 75, 1-3-Fluoro-4-[3-(9H-Purin-6-Yl)Pyridin-2-Ylamino]Phenyl-3-(3-Trifluoromethylphenyl)Urea], the figure is over 10000 nM; as for `O=C(Nc1cccc(Nc2ncccc2-c2ncnc3[nH]cnc23)c1)c1cccc(Cl)c1` [Example 48, N-(3-(3-(9H-Purin-6-Yl)Pyridin-2-Ylamino)Phenyl)-3-Chlorobenzamide], 2480 nM. As for `O=C(Nc1cc(Nc2ncccc2-c2ncnc3[nH]cnc23)ccc1F)c1ccc(F)c(C(F)(F)F)c1` [Example 111, N-5-[(3-(9H-Purin-6-Yl)Pyridin-2-Yl)Amino]-2-Fluorophenyl-4-Fluoro-3-(Trifluoromethyl)Benzamide], the figure is 300 nM; as for `O=C(Nc1cc(Nc2ncccc2-c2ncnc3[nH]cnc23)ccc1F)c1ccc(Cl)c(C(F)(F)F)c1` [Example 61, 4-Chloro-N-2-Fluoro-5-[3-(9H-Purin-6-Yl)Pyridin-2-Ylamino)Phenyl-3-(Trifluoromethyl)Benzamide], 439 nM; as for `O=C(Nc1ccc(F)c(Nc2ncccc2-c2ncnc3[nH]cnc23)c1F)c1cc(C(F)(F)F)cc(C(F)(F)F)c1` [Example 58, N-2,4-Difluoro-3-[3-(9H-Purin-6-Yl)Pyridin-2-Ylamino)-Phenyl-3,5-Bistrifluoromethylbenzamide], 407 nM. As for `O=C(Nc1cc(Nc2ncccc2-c2ncnc3[nH]cnc23)ccc1F)c1cc(Br)cc(C(F)(F)F)c1` [Example 158, N-5-[(3-(9H-purin-6-yl)pyridin-2-yl)amino]-2-fluorophenyl-3-bromo-5-(trifluoromethyl)benzamide], the figure is 283 nM; as for `COc1ccc(NC(=O)c2cccc(C(F)(F)F)c2)cc1Nc1ncccc1-c1ncnc2[nH]cnc12` [Example 70, N-4-Methoxy-5-[3-(9H-Purin-6-Yl)Pyridin-2-Ylamino)Phenyl-3-Trifluoromethylbenzamide], 757 nM; as for `N#Cc1cc(C(=O)Nc2cc(Nc3ncccc3-c3ncnc4[nH]cnc34)ccc2F)cc(C(F)(F)F)c1` [Example 157, N-5-[(3-(9H-purin-6-yl)pyridin-2-yl)amino]-2-fluorophenyl-3-cyano-5-(trifluoromethyl)benzamide], 464 nM. `Cc1ccc(Nc2ncccc2-c2ncnc3[nH]cnc23)cc1NC(=O)c1cccc(C(F)(F)F)c1` [Example 68, N-2-Methyl-5-[3-(9H-Purin-6-Yl)Pyridin-2-Ylamino)Phenyl-3-Trifluoromethylbenzamide]: the IC50 is 6590 nM.

On to `O=C(Nc1ccc(F)c(Nc2ncccc2-c2ncnc3[nH]cnc23)c1F)c1ccc(Cl)c(C(F)(F)F)c1` [Example 16, N-(3-(3-(9H-purin-6-yl)pyridin-2-ylamino)-2,4-difluorophenyl)-4-chloro-3-(trifluoromethyl)benzamide], for which the IC50 worked out at 2780 nM. `CCN1CCN(Cc2ccc(C(=O)Nc3ccc(F)c(Nc4ncccc4-c4ncnc5[nH]cnc45)c3F)cc2C(F)(F)F)CC1` [Example 3, N-(3-(3-(9H-purin-6-yl)pyridin-2-ylamino)-2,4-difluorophenyl)-4-((4-ethylpiperazin-1-yl)methyl)-3-(trifluoromethyl)benzamide]: the IC50 worked out at 4030 nM.

For the molecule `O=C(Nc1cc(Nc2ncccc2-c2ncnc3[nH]cnc23)ccc1Cl)c1cc(C(F)(F)F)cc(C(F)(F)F)c1` [Example 124, N-5-[(3-(9H-purin-6-yl)pyridin-2-yl)amino]-2-chlorophenyl-3,5-bis(trifluoromethyl)benzamide], the IC50 was determined as 888 nM.
